Reference: US8901145B2, “Aminopyrimidine kinase inhibitors” (Jasco Pharmaceuticals, LLC, priority 2011, dated 2014)

Experiments:
[1] = biological target: Pim-3(h) (Homo sapiens, UniProt Q86V86); assay: Enzyme activity, ATP = Km, Pim-3(h); assay type: biochemical; settings: 300 nM of compound, ATP concentration = Km
[2] = system: KU812; assay: Cell proliferation inhibition (MTS), KU812; assay type: cell-based, human; settings: KU812, 72 h
Protocol: (§1) All cells were cultured in the media supplemented with 10% FBS in the temperature of 37° C., 5% CO2 and 95% humidity. All culture media were purchased from GIBCO.
(§2) • 1. Cells were harvested respectively during the logarithmic growth period and counted with hemocytometer. Cell viability was over 98% by trypan blue exclusion. • 2. Dilute cells with respective medium to achieve 1.11×10^5 cells/mL for LNCaP cells, 2.22×10^5 cells/mL for KU812 cells, 5.56×10^4 cells/mL for Panc-1 cells. • 3. Add 90 μL cell suspensions to 96-well plate, the final cell densities are 1×10^4 cells/well for LNCaP cells, 2×10^4 cells/well for KU812 cells, and […] cells/well for Panc-1 cells, respectively. • 4. The next day, dilute the test article or positive drugs with DMSO or PBS. • 5. Dispense 10 μL drug solution in each well (triplicate for each drug concentration). • 6. The plates were cultured for another 72 hours, then measured using MTS assay. • 7. Prepare MTS/PMS solution immediately prior to use, pipet 20 μL of the mixture into each well of the 96 well assay plate containing 100 μL culture medium. (The final reaction volume is 120 μL). • 8. Incubate the plate for 1-4 hours at 37° C. in a humidified, 5% CO2 atmosphere. • 9. Record the absorbance at 490 nm using Synergy2 Microplate Reader. Data Analysis:
(§3) The software of GraphPad Prism version 5 was used to calculate IC50. […]

[3] = system: NCI-H929; assay: Cell proliferation inhibition (MTS), NCI-H929; assay type: cell-based, human; settings: NCI-H929, 72 hours
Protocol: (§4) All cells were cultured in media supplemented with 10% FBS except for which are marked specially, in the temperature of 37° C., 5% CO2 and 95% humidity. All culture media were purchased from GIBCO (USA, IMDM Cat. 12200-036; RPMI Medium 1640 Cat. 31800-022; 2-mercaptoethanol Cat. 21985-023).
(§5) • 1. The cells were harvested respectively during the logarithmic growth period and counted with hemocytometer. The cell viability was over 98% by trypan blue exclusion. • 2. Cell concentrations were adjusted to 2.22×10^5 or 1.11×10^5 or 5.56×10^4 cells/mL with respective medium. • 3. 90 μL cell suspensions were added to 96-well plates (triplicates for each cell concentration), the final cell densities were 2×10^4 or 1×10^4 or 5×10^3 cells/well. The density of 5×10^3 cells/well was used for the first test. The appropriate cell density was determined and adjusted according to the results of the first test. • 4. The next day, test article or positive drugs were dissolved with DMSO as stock solution at the concentration of 20 mM. • 5. 10 μL drug solution was dispensed in each well (triplicate for each drug concentration). • 6. Plates were cultured for another 72 hours, then measured by means of MTS assay. • 7. MTS/PMS solution was prepared immediately prior to use. […] Absorbance at 490 nm was recorded using SpectraMAX Plus microplate spectrophotometer. […]

[4] = biological target: Pim-2(h) (Homo sapiens, UniProt Q9P1W9); assay: Enzyme activity, ATP = Km, Pim-2(h); assay type: biochemical; settings: 300 nM of compound, ATP concentration = Km
[5] = biological target: CK1γ2(h) (Homo sapiens, UniProt P78368); assay: Enzyme activity, ATP = Km, CK1γ2(h); assay type: biochemical; settings: 300 nM of compound, ATP concentration = Km
[6] = biological target: Pim-1(h) (Homo sapiens, UniProt P11309); assay: Enzyme activity, ATP = Km, Pim-1(h); assay type: biochemical; settings: 300 nM of compound, ATP concentration = Km
[7] = system: RPMI-8226; assay: Cell proliferation inhibition (MTS), RPMI-8226; assay type: cell-based, human; settings: RPMI 8226, 72 hours
Protocol: as §4, §5

[8] = system: Panc-1; assay: Cell proliferation inhibition (MTS), Panc-1; assay type: cell-based, human; settings: Panc-1, 72 h
Protocol: as §1, §2, §3

[9] = system: CK1(y); assay: Enzyme activity, ATP = Km, CK1(y); assay type: biochemical, yeast; settings: 300 nM of compound, ATP concentration = Km
[10] = biological target: CK2(h) (Homo sapiens, UniProt P68400); assay: Enzyme activity, ATP = Km, CK2(h); assay type: biochemical; settings: 300 nM of compound, ATP concentration = Km
Sequence of CK2(h) (P68400 whole entry): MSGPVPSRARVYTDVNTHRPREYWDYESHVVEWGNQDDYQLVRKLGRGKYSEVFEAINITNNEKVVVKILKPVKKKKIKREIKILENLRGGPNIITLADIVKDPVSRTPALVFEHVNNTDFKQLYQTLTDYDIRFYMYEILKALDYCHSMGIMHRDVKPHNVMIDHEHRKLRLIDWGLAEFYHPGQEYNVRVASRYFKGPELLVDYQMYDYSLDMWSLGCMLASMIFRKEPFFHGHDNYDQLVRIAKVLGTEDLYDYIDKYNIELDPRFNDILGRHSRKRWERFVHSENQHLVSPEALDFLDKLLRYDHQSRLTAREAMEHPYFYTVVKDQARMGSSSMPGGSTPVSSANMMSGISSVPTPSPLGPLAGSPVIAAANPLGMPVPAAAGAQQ
Sequence of CK2(h) (P67870 whole entry partner): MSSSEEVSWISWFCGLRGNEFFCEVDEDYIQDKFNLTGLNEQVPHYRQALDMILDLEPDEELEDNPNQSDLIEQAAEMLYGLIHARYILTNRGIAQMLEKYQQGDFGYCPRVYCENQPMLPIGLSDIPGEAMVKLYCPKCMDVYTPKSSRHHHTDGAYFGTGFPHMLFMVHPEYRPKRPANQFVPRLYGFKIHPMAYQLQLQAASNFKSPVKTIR

Sequence of CK1γ2(h) (P78368 whole entry): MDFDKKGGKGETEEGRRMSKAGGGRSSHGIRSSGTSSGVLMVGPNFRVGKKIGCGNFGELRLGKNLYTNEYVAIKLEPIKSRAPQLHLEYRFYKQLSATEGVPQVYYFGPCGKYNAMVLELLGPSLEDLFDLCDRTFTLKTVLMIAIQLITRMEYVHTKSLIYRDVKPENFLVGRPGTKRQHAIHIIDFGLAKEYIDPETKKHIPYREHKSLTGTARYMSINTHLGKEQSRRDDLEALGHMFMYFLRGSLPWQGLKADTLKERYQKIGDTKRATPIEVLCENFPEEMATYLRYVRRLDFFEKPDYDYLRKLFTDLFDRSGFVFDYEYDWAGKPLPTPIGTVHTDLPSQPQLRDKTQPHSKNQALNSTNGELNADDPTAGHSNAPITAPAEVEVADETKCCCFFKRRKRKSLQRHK
Sequence of Pim-2(h) (Q9P1W9 whole entry): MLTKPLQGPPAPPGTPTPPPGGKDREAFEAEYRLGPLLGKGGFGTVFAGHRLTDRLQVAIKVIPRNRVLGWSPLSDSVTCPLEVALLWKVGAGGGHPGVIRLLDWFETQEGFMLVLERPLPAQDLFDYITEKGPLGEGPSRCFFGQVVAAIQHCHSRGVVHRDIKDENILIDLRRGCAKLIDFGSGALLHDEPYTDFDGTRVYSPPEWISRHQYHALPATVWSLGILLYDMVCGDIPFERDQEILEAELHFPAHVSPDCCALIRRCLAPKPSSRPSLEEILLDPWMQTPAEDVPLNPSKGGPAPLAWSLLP
Sequence of Pim-1(h) (P11309 whole entry): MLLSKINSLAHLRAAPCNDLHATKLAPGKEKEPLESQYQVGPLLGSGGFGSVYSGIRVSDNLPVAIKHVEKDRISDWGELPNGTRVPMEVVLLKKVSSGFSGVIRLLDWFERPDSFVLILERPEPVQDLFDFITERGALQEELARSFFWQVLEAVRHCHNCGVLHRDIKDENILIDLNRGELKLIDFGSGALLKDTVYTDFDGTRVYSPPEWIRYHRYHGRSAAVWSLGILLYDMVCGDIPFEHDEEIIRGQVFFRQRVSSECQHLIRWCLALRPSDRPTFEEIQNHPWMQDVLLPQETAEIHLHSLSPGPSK

Percent Activity of Enzyme Pim-3(h) [1]: 80%
IC50 [3]: > 30 µM
Percent Activity of Enzyme Pim-2(h) [4]: 108%
Percent Activity of Enzyme CK1γ2(h) [5]: 95%
Percent Activity of Enzyme Pim-1(h) [6]: 115%
IC50 [7]: > 30 µM
IC50 [8]: > 30 µM
Percent Activity of Enzyme CK1(y) [9]: 114%
Percent Activity of Enzyme CK2(h) [10]: 85%
Structure (SMILES): NCC1CCN(c2cc(/C=C3\SC(=O)NC3=O)ncn2)CC1 [Compound 11268]
IC50 [2]: > 30 µM
